Data published in patent US10865191B2, “Heterocyclic compounds useful as modulators of TNF alpha” (BRISTOL-MYERS SQUIBB COMPANY, priority 2015, dated 2020).

biological target: TNFα (Homo sapiens, UniProt P01375); test: TNF induced HEK-Blue assay (NF-kB-driven secreted alkaline phosphatase reporter); format: cell-based; details: TNF induced HEK-Blue assay IC50 value, TNFα 0.5 ng/mL, HEK-Blue-CD40L cells, 18 h
Summary of the method: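 HEK-Blue-CD40L cells (NF-kB-driven SEAP reporter), 20,000/well, added after 30 min pre-incubation of compound (0.004–25 μM final) with TNFα 0.5 ng/mL final at 37 °C; 18 h incubation. SEAP read with QUANTI-Blue at 620 nm; IC50 from 4-parameter logistic fit, normalized to unstimulated and stimulated DMSO controls.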

TNFα, sequence (P01375 77-233 limits assumed): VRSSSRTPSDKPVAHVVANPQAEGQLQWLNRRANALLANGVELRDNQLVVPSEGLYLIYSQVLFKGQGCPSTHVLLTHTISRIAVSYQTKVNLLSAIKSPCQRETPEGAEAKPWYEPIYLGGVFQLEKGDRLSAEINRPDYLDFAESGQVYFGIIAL

Compound | IC50 [µM]
C[C@@H](Nc1c(Cl)cnc2ccc(-c3cnc(C(C)(C)O)nc3)cc12)c1ccccc1F [Example 217, (R)-2-(5-(3-chloro-4-(1-(2-fluorophenyl)ethylamino)quinolin-6-yl)pyrimidin-2-yl)propan-2-ol] | < 1
C[C@@H](Nc1c(Cl)cnc2ccc(-c3ccc(S(C)(=O)=O)nc3)cc12)c1ccccc1F [Example 221, (R)-3-chloro-N-(1-(2-fluorophenyl)ethyl)-6-(6-(methylsulfonyl)pyridin-3-yl)quinolin-4-amine] | < 1
CCOc1ncc(-c2ccc3ncc(Cl)c(N[C@H](C)c4ccccc4F)c3c2)cn1 [Example 222, (R)-3-chloro-6-(2-ethoxypyrimidin-5-yl)-N-(1-(2-fluorophenyl)ethyl)quinolin-4-amine] | < 1
C[C@@H](Nc1c(Cl)cnc2ccc(-c3cnc(N4CCS(=O)(=O)CC4)nc3)cc12)c1ccccc1F [Example 225, (R)-4-(5-(3-chloro-4-((1-(2-fluorophenyl)ethyl)amino)quinolin-6-yl)pyrimidin-2-yl)thiomorpholine 1,1-dioxide] | < 1
C[C@@H](Nc1c(Cl)cnc2ccc(-c3ccc(C(C)(C)O)cc3)cc12)c1ccccc1F [Example 228, (R)-2-(4-(3-chloro-4-((1-(2-fluorophenyl)ethyl)amino)quinolin-6-yl)phenyl)propan-2-ol] | < 1
CC(Nc1c(Cl)cnc2cc(F)c(-c3cnc(C(C)(C)O)nc3)cc12)c1ccccc1F (centres unmarked) [Example 248, 2-(5-(3-chloro-7-fluoro-4-((1-(2-fluorophenyl)ethyl)amino)quinolin-6-yl)pyrimidin-2-yl)propan-2-ol] | 10 to 25
CC(Nc1c(Cl)cnc2cc(F)c(-c3cnc(C(C)(C)O)nc3)cc12)c1ccccc1F (centres unmarked) [Example 249, 2-(5-(3-chloro-7-fluoro-4-((1-(2-fluorophenyl)ethyl)amino)quinolin-6-yl)pyrimidin-2-yl)propan-2-ol] | 1 to 10
CC(Nc1c(Cl)cnc2cc(F)c(-c3cnc(C(C)(C)O)nc3)cc12)c1ccccc1F (centres unmarked) [Example 250, 2-(5-(3-chloro-7-fluoro-4-((1-(2-fluorophenyl)ethyl)amino)quinolin-6-yl)pyrimidin-2-yl)propan-2-ol] | 1 to 10
CC(Nc1c(Cl)cnc2cc(F)c(-c3cnc(C(C)(C)O)nc3)cc12)c1ccccc1F (centres unmarked) [Example 252, 2-(5-(3-chloro-7-fluoro-4-((1-(2-fluorophenyl)ethyl)amino)quinolin-6-yl)pyrimidin-2-yl)propan-2-ol] | < 1

same assay, conditions: TNFα 0.5 ng/mL, HEK-Blue-CD40L cells, 18 h; read-out: TNF induced HEK-Blue assay IC50 value

Compound | IC50 [µM]
C[C@@H](Nc1c(Cl)cnc2ccc(-c3cnc(N4CCOCC4)nc3)cc12)c1ccccc1F [Example 219, (R)-3-chloro-N-(1-(2-fluorophenyl)ethyl)-6-(2-morpholinopyrimidin-5-yl)quinolin-4-amine] | < 1
C[C@@H](Nc1c(Cl)cnc2ccc(-c3ccc(CO)cc3)cc12)c1ccccc1F [Example 220, (R)-(4-(3-chloro-4-((1-(2-fluorophenyl)ethyl)amino)quinolin-6-yl)phenyl)methanol] | 10 to 25
CCc1ncc(-c2ccc3ncc(Cl)c(N[C@H](C)c4ccccc4F)c3c2)cn1 [Example 223, (R)-3-chloro-6-(2-ethylpyrimidin-5-yl)-N-(1-(2-fluorophenyl)ethyl) quinolin-4-amine] | 10 to 25
COC(=O)CN1CCN(c2ncc(-c3ccc4ncc(Cl)c(N[C@H](C)c5ccccc5F)c4c3)cn2)CC1 [Example 224] | < 1
C[C@@H](Nc1c(Cl)cnc2ccc(-c3cnc(N4CCNC(=O)C4)nc3)cc12)c1ccccc1F [Example 226, (R)-4-(5-(3-chloro-4-((1-(2-fluorophenyl)ethyl)amino)quinolin-6-yl)pyrimidin-2-yl)piperazin-2-one] | < 1
C[C@@H](Nc1c(Cl)cnc2ccc(-c3cnc(C4(O)COC4)nc3)cc12)c1ccccc1F [Example 227, (R)-3-(5-(3-chloro-4-((1-(2-fluorophenyl)ethyl)amino)quinolin-6-yl)pyrimidin-2-yl)oxetan-3-ol] | < 1
C[C@@H](Nc1c(Cl)cnc2ccc(-c3cnc(N4CCN(CC#N)CC4)nc3)cc12)c1ccccc1F [Example 233, (R)-2-(4-(5-(3-chloro-4-((1-(2-fluorophenyl)ethyl)amino)quinolin-6-yl)pyrimidin-2-yl)piperazin-1-yl)acetonitrile] | < 1
C[C@@H](Nc1c(Cl)cnc2ccc(-c3cnc(N4CCN(Cc5nn[nH]n5)CC4)nc3)cc12)c1ccccc1F [Example 237, (R)-6-(2-(4-((2H-tetrazol-5-yl)methyl)piperazin-1-yl)pyrimidin-5-yl)-3-chloro-N-(1-(2-fluorophenyl)ethyl)quinolin-4-amine] | < 1
Cc1cnc2ccc(-c3cnc(C(C)(C)O)nc3)cc2c1N[C@H](C)c1ccccc1F [Example 240, (R)-2-(5-(4-((1-(2-fluorophenyl)ethyl)amino)-3-methylquinolin-6-yl)pyrimidin-2-yl)propan-2-ol] | < 1
CC(Nc1c(Cl)cnc2cc(F)c(-c3cnc(C(C)(O)CO)nc3)cc12)c1ccccc1F (centres unmarked) [Example 254, 2-(5-(3-chloro-7-fluoro-4-((1-(2-fluorophenyl)ethyl)amino)quinolin-6-yl)pyrimidin-2-yl)propane-1,2-diol] | < 1
CC(Nc1c(Cl)cnc2cc(F)c(-c3cnc(C#N)nc3)cc12)c1ccccc1F (centres unmarked) [Example 255, 5-(3-chloro-7-fluoro-4-((1-(2-fluorophenyl)ethyl)amino)quinolin-6-yl)pyrimidine-2-carbonitrile] | 1 to 10
CC(Nc1c(Cl)cnc2cc(F)c(-c3ccc(C(O)CO)cc3)cc12)c1ccccc1F (centres unmarked) [Example 256, 1-(4-(3-chloro-7-fluoro-4-((1-(2-fluorophenyl)ethyl)amino)quinolin-6-yl)phenyl)ethane-1,2-diol] | < 1
CC(Nc1c(Cl)cnc2cc(F)c(-c3cnc(C(C)(O)CO)nc3)cc12)c1ccccc1F (centres unmarked) [Example 257, 2-(5-(3-chloro-7-fluoro-4-((1-(2-fluorophenyl)ethyl)amino)quinolin-6-yl)pyrimidin-2-yl)propane-1,2-diol] | < 1
CC(Nc1c(Cl)cnc2cc(F)c(-c3ccc(C(C)(C)O)c(F)c3)cc12)c1ccccc1F (centres unmarked) [Example 258, 2-(4-(3-chloro-7-fluoro-4-((1-(2-fluorophenyl)ethyl)amino)quinolin-6-yl)-2-fluorophenyl)propan-2-ol] | 1 to 10
CC(Nc1c(Cl)cnc2cc(F)c(-c3cnc(C(C)(O)CO)nc3)cc12)c1ccccc1F (centres unmarked) [Example 259, 2-(5-(3-chloro-7-fluoro-4-((1-(2-fluorophenyl)ethyl)amino)quinolin-6-yl)pyrimidin-2-yl)propane-1,2-diol] | 10 to 25
CC(Nc1c(Cl)cnc2cc(F)c(-c3ccc(C(O)C4CC4)cc3)cc12)c1ccccc1F (centres unmarked) [Example 260, (4-(3-chloro-7-fluoro-4-((1-(2-fluorophenyl)ethyl)amino)quinolin-6-yl)phenyl)(cyclopropyl)methanol] | < 1
CC(Nc1c(Cl)cnc2cc(F)c(-c3ccc(C(O)C4CC4)cc3)cc12)c1ccccc1F (centres unmarked) [Example 261, (4-(3-chloro-7-fluoro-4-((1-(2-fluorophenyl)ethyl)amino)quinolin-6-yl)phenyl)(cyclopropyl) methanol] | < 1
CC(Nc1c(Cl)cnc2cc(F)c(-c3ccc(C(O)C4CC4)cc3)cc12)c1ccccc1F (centres unmarked) [Example 262, (4-(3-chloro-7-fluoro-4-((1-(2-fluorophenyl)ethyl)amino)quinolin-6-yl)phenyl)(cyclopropyl)methanol] | 1 to 10
CC(Nc1c(Cl)cnc2cc(F)c(-c3ccc(C(O)C4CC4)cc3)cc12)c1ccccc1F (centres unmarked) [Example 263, (4-(3-chloro-7-fluoro-4-((1-(2-fluorophenyl)ethyl)amino)quinolin-6-yl)phenyl)(cyclopropyl)methanol] | 1 to 10
CC(Nc1c(Cl)cnc2cc(F)c(-c3ccc(C4(CO)CC4)cc3)cc12)c1ccccc1F (centres unmarked) [Example 265, (1-(4-(3-chloro-7-fluoro-4-((1-(2-fluorophenyl)ethyl)amino)quinolin-6-yl)phenyl)cyclopropyl) methanol] | < 1
CC(Nc1c(Cl)cnc2cc(F)c(-c3cc(F)c(C(C)(C)O)c(F)c3)cc12)c1ccccc1F (centres unmarked) [Example 268, 2-(4-(3-chloro-7-fluoro-4-((1-(2-fluorophenyl)ethyl)amino)quinolin-6-yl)-2,6-difluorophenyl) propan-2-ol] | < 1
CC(C)(O)c1ncc(-c2cc3c(N[C@@H](c4ccccc4F)C(F)F)c(Cl)cnc3cc2F)cn1 [Example 269, (S)-2-(5-(3-chloro-4-((2,2-difluoro-1-(2-fluorophenyl)ethyl)amino)-7-fluoroquinolin-6-yl)pyrimidin-2-yl)propan-2-ol] | < 1
CC(C)(O)c1ccc(-c2cc3c(N[C@@H](c4ccccc4F)C(F)F)c(Cl)cnc3cc2F)cn1 [Example 270, (S)-2-(5-(3-chloro-4-((2,2-difluoro-1-(2-fluorophenyl)ethyl)amino)-7-fluoroquinolin-6-yl)pyridin-2-yl)propan-2-ol] | < 1
CC(Nc1c(Cl)cnc2cc(F)c(-c3ccc(C(O)CN4CCOCC4)cc3)cc12)c1ccccc1F (centres unmarked) [Example 272, 1-(4-(3-chloro-7-fluoro-4-((1-(2-fluorophenyl)ethyl)amino)quinolin-6-yl)phenyl)-2-morpholinoethan-1-ol] | < 1
CC(Nc1c(Cl)cnc2cc(F)c(-c3cnc(C(O)CN4CCOCC4)cn3)cc12)c1ccccc1F (centres unmarked) [Example 273, 1-(5-(3-chloro-7-fluoro-4-((1-(2-fluorophenyl)ethyl)amino)quinolin-6-yl)pyrazin-2-yl)-2-morpholinoethan-1-ol] | < 1
CC(Nc1c(Cl)cnc2cc(F)c(-c3cnc(C(O)CN4CCOCC4)cn3)cc12)c1ccccc1F (centres unmarked) [Example 274, 1-(5-(3-chloro-7-fluoro-4-((1-(2-fluorophenyl)ethyl)amino)quinolin-6-yl)pyrazin-2-yl)-2-morpholinoethan-1-ol] | 1 to 10
